Test results published in ChEMBL document CHEMBL1136474, “4-(4-alkylpiperazin-1-yl)phenyl group: a novel class of basic side chains for selective estrogen receptor modulators” (2003).

Key:
[1] = biological target: Estrogen receptor (Homo sapiens) (UniProt Q92731+P03372); assay: Binding affinity towards estrogen receptor (ER) using [3H]17-beta-estradiol as radioligand in human breast cancer MCF-7 cells relative to compound 1; format: cell-based; settings: MCF7
[2] = tested on: Rattus norvegicus; assay: Plasma cholesterol lowering effect was determined in Sprague-Dawley rats at a dose of 1 mg/kg/day for 4 days; format: functional
[3] = biological target: T1, Estrogen receptor (Rattus norvegicus) (UniProt P06211+Q62986); settings: Uterus
Description: Uterotrophic effect as uterine weight gain in rats at 1 mg/kg/day oral dose for 4 days

[4] = biological target: T1, Estrogen receptor (Rattus norvegicus); assay: Uterotrophic effect as uterine weight gain in rats at 10 mg/kg/day oral dose for 4 days; format: functional, organism-based; settings: Uterus

Row | SMILES | relative binding affinity (RBA) [1] | Uterotrophic effect [3] | Increase [4] [%] | Decrease [2] [%]
1 | Oc1ccc2c(c1)CCC21C=C(c2ccc(OCCN3CCCCC3)c(F)c2)c2cc(O)ccc21 (stereo unspecified) | 247 | – | – | 16
2 | Cc1cc(OCCN2CCCCC2)ccc1C1=CC2(CCc3cc(O)ccc32)c2ccc(O)cc21 (stereo unspecified) | 70 | – | – | -12
3 | Cc1cc(C2=CC3(CCc4cc(O)ccc43)c3ccc(O)cc32)ccc1OCCN1CCCCC1 (stereo unspecified) | 122 | – | – | 4.5
4 | Oc1ccc2c(c1)CCC21C=C(c2cccc(OCCN3CCCCC3)c2)c2cc(O)ccc21 (stereo unspecified) | 47 | – | – | –
5 | CN(C)CCOc1ccc(C2=CC3(CCc4cc(O)ccc43)c3ccc(O)cc32)cc1 (stereo unspecified) | 85 | – | – | 6
6 | Oc1ccc2c(c1)CCC21C=C(c2ccc(CCCN3CCCCC3)cc2)c2cc(O)ccc21 (stereo unspecified) | 956 | – | – | 6
7 | Oc1ccc2c(c1)CCC21C=C(c2ccc(OCCCN3CCCCC3)cc2)c2cc(O)ccc21 (stereo unspecified) | 460 | – | – | 8.5
8 | Cc1cc(C2=CC3(CCc4cc(O)ccc43)c3ccc(O)cc32)cc(C)c1OCCN1CCCCC1 (stereo unspecified) | 22 | – | – | -9.1
9 | Oc1ccc2c(c1)CCC21C=C(c2ccc(OCCN3CCCCC3)cc2)c2cc(O)ccc21 (stereo unspecified) | – | – | – | 44
10 | CCN(CC)CCOc1ccc(C2=CC3(CCc4cc(O)ccc43)c3ccc(O)cc32)cc1 (stereo unspecified) | 153 | – | – | 18

Continued, in another order:

Row | relative binding affinity (RBA) [1] | Uterotrophic effect [3] | Increase [4] [%] | SMILES | Decrease [2] [%]
11 | 103 | – | – | CC(C)N1CCN(c2ccc(C3=CC4(CCc5cc(O)ccc54)c4ccc(O)cc43)cc2)CC1 (stereo unspecified) | 21
12 | 118 | – | – | Oc1ccc2c(c1)CCC21C=C(c2ccc(OCCN3CCCC3)cc2)c2cc(O)ccc21 (stereo unspecified) | 17
13 | 387 | 114 | – | CCC1CCCN(c2ccc(C3=CC4(CCc5cc(O)ccc54)c4ccc(O)cc43)cc2)CC1 (stereo unspecified) | 32
14 | 181 | 208 | – | CCN1CCN(c2ccc(C3=CC4(CCc5cc(O)ccc54)c4ccc(O)cc43)cc2)CC1 (stereo unspecified) | 52
15 | 125 | 139 | 26.5 | Oc1ccc2c(c1)CCC21C=C(c2ccc(N3CCCCC3)cc2)c2cc(O)ccc21 (stereo unspecified) | 51
16 | 42 | 185 | – | CC(C)CN1CCN(c2ccc(C3=CC4(CCc5cc(O)ccc54)c4ccc(O)cc43)cc2)CC1 (stereo unspecified) | 87
17 | 428 | – | – | CC1CCN(CCOc2ccc(C3=CC4(CCc5cc(O)ccc54)c4ccc(O)cc43)cc2)CC1 (stereo unspecified) | 18
18 | 186 | 223 | – | CCCN1CCN(c2ccc(C3=CC4(CCc5cc(O)ccc54)c4ccc(O)cc43)cc2)CC1 (stereo unspecified) | 55
19 | 207 | – | – | CN1CCN(c2ccc(C3=CC4(CCc5cc(O)ccc54)c4ccc(O)cc43)cc2)CC1 (stereo unspecified) | –
